Data on two molecules can be found in patent US20230085307A1, “PYRIDAZINONE COMPOUND AND HERBICIDE” (NISSAN CHEMICAL CORPORATION, priority 2019, published 2023).

SMILES strings stand for the structures.

The subject of one assay is velvetleaf. The assay can be described thus: Test Example 4: herbicidal effect by soil treatment (Table 19, symbol M). The class given is in vivo, velvetleaf (Abutilon theophrasti). The following applies: amount of applied herbicide 320 g/ha. A digest of the protocol:
(§1)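 Emulsion of test compound, water-diluted to predetermined amount, sprayed on soil after sowing (seed depth ~1.5 cm, sterilized diluvial soil). Greenhouse, 25–30° C. Effect graded at three weeks post-spray.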
In the case of `CCCOc1ccc2c(-c3c(O)c(C)nn(C)c3=O)c(-c3ccccc3OCC)sc2c1` [3-103], the “M: velvetleaf, herbicidal effect grade” value is 3 (Herbicidal rate of 40% or more and less than 70%).
`COc1ccccc1-c1sc2cc(OCC(F)F)ccc2c1-c1c(O)c(C)nn(C)c1=O` [3-114]: the “M: velvetleaf, herbicidal effect grade” value is 4 (Herbicidal rate of 70% or more and less than 90%).

The next assay concerns barnyard grass. The assay can be described thus: Test Example 3: herbicidal effect by foliage application, Wagner pot (Table 18, symbol H). The class given is in vivo, barnyard grass (Echinochloa crus-galli). The following applies: 320 g/ha. The method in brief:
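Plants were sown in alluvial soil held under 0.1–0.5 cm standing water and grown 14 days in a greenhouse at 25–30 °C. An emulsifiable formulation, water-diluted to the set dose, was then sprayed onto the foliage, and effects were scored three weeks later using previously defined criteria.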
In the case of `CCCOc1ccc2c(-c3c(O)c(C)nn(C)c3=O)c(-c3ccccc3OCC)sc2c1` [3-103], the “herbicidal effect on barnyard grass (H)” value is 4 (Herbicidal rate of 70% or more and less than 90%).
For the molecule `COc1ccccc1-c1sc2cc(OCC(F)F)ccc2c1-c1c(O)c(C)nn(C)c1=O` [3-114], the “herbicidal effect on barnyard grass (H)” value is given as 5 (Herbicidal rate of 90% or more (almost completely withered)).

The test system of the next assay is blackgrass. The assay can be described thus: Test Example 5: herbicidal effect by foliage application, plastic box (Table 20, symbol J). It is filed as in vivo, blackgrass (Alopecurus myosuroides). Particulars: foliage application, 320 g/ha, three weeks after application. A digest of the protocol: (§2)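 Post-emergence foliar test in sterilized diluvial soil. Compound applied as water-diluted emulsion at a predetermined rate to 14-day-old plants; evaluation at three weeks.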
In the case of `CCCOc1ccc2c(-c3c(O)c(C)nn(C)c3=O)c(-c3ccccc3OCC)sc2c1` [3-103], the “J: blackgrass, herbicidal effect grade” value is 4 (Herbicidal rate of 70% or more and less than 90%).
For `COc1ccccc1-c1sc2cc(OCC(F)F)ccc2c1-c1c(O)c(C)nn(C)c1=O` [3-114], the “J: blackgrass, herbicidal effect grade” value was 5 (Herbicidal rate of 90% or more (almost completely withered)).

The subject of the next assay is velvetleaf. The assay can be described thus: Test Example 5: herbicidal effect by foliage application, plastic box (Table 20, symbol M). It is filed as in vivo, velvetleaf (Abutilon theophrasti). Particulars: foliage application, 320 g/ha, three weeks after application. The method in brief:
as §2
Regarding `CCCOc1ccc2c(-c3c(O)c(C)nn(C)c3=O)c(-c3ccccc3OCC)sc2c1` [3-103], the “M: velvetleaf, herbicidal effect grade” value is on record as 5 (Herbicidal rate of 90% or more (almost completely withered)).
Take `COc1ccccc1-c1sc2cc(OCC(F)F)ccc2c1-c1c(O)c(C)nn(C)c1=O` [3-114]: the “M: velvetleaf, herbicidal effect grade” value was 5 (Herbicidal rate of 90% or more (almost completely withered)).

In a further assay the test system is green foxtail. The assay can be described thus: Test Example 5: herbicidal effect by foliage application, plastic box (Table 20, symbol G). The following applies: foliage application, 320 g/ha, three weeks after application. The class given is in vivo, green foxtail (Setaria viridis). The method in brief: as §2
Take `CCCOc1ccc2c(-c3c(O)c(C)nn(C)c3=O)c(-c3ccccc3OCC)sc2c1` [3-103]: the “G: green foxtail, herbicidal effect grade” value is 5 (Herbicidal rate of 90% or more (almost completely withered)).
As for `COc1ccccc1-c1sc2cc(OCC(F)F)ccc2c1-c1c(O)c(C)nn(C)c1=O` [3-114], the “G: green foxtail, herbicidal effect grade” value is recorded as 5 (Herbicidal rate of 90% or more (almost completely withered)).

In a further assay the test system is late watergrass. The assay can be described thus: Test Example 1: herbicidal activity, application before weed generation under submerged conditions (Table 16, symbol A). It is filed as in vivo, late watergrass (Echinochloa oryzicola). Particulars: amount of applied herbicide 320 g/ha. A digest of the protocol:
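Emulsion formulation, water-diluted to set dose, was put onto the flooded surface (4 cm depth, alluvial soil) the same day weeds were sown and 2.5-leaf rice transplanted. After 3 weeks at 25-30 °C under glass, each species was rated 0 (≤5% kill) to 5 (≥90% kill).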
Regarding `CCCOc1ccc2c(-c3c(O)c(C)nn(C)c3=O)c(-c3ccccc3OCC)sc2c1` [3-103], the “Herbicidal effect, A: late watergrass” value is 5 (Herbicidal rate of 90% or more (almost completely withered)).
In the case of `COc1ccccc1-c1sc2cc(OCC(F)F)ccc2c1-c1c(O)c(C)nn(C)c1=O` [3-114], the “Herbicidal effect, A: late watergrass” value is given as 5 (Herbicidal rate of 90% or more (almost completely withered)).

A further assay deals with chickweed. The assay can be described thus: Test Example 5: herbicidal effect by foliage application, plastic box (Table 20, symbol P). The class given is in vivo, common chickweed (Stellaria media). Particulars: foliage application, 320 g/ha, three weeks after application. The method in brief: as §2
Regarding `CCCOc1ccc2c(-c3c(O)c(C)nn(C)c3=O)c(-c3ccccc3OCC)sc2c1` [3-103], the “P: chickweed, herbicidal effect grade” value is given as 5 (Herbicidal rate of 90% or more (almost completely withered)).
With `COc1ccccc1-c1sc2cc(OCC(F)F)ccc2c1-c1c(O)c(C)nn(C)c1=O` [3-114], the “P: chickweed, herbicidal effect grade” value is 5 (Herbicidal rate of 90% or more (almost completely withered)).

The test system of another assay is Italian ryegrass. The assay can be described thus: Test Example 5: herbicidal effect by foliage application, plastic box (Table 20, symbol K). It is filed as in vivo, Italian ryegrass (Lolium multiflorum). Particulars: foliage application, 320 g/ha, three weeks after application. A digest of the protocol:
as §2
With `CCCOc1ccc2c(-c3c(O)c(C)nn(C)c3=O)c(-c3ccccc3OCC)sc2c1` [3-103], the “K: Italian ryegrass, herbicidal effect grade” value is 5 (Herbicidal rate of 90% or more (almost completely withered)).
Consider `COc1ccccc1-c1sc2cc(OCC(F)F)ccc2c1-c1c(O)c(C)nn(C)c1=O` [3-114], for which the “K: Italian ryegrass, herbicidal effect grade” value was 5 (Herbicidal rate of 90% or more (almost completely withered)).

In another assay the test system is blackgrass. The assay can be described thus: Test Example 4: herbicidal effect by soil treatment (Table 19, symbol J). The class given is in vivo, blackgrass (Alopecurus myosuroides). Particulars: amount of applied herbicide 320 g/ha. The method in brief:
as §1
Take `CCCOc1ccc2c(-c3c(O)c(C)nn(C)c3=O)c(-c3ccccc3OCC)sc2c1` [3-103]: the “J: blackgrass, herbicidal effect grade” value is 3 (Herbicidal rate of 40% or more and less than 70%).
For `COc1ccccc1-c1sc2cc(OCC(F)F)ccc2c1-c1c(O)c(C)nn(C)c1=O` [3-114], the “J: blackgrass, herbicidal effect grade” value was 5 (Herbicidal rate of 90% or more (almost completely withered)).

The subject of another assay is oval-leafed pondweed. The assay can be described thus: Test Example 2: herbicidal activity, application during weed generation under submerged conditions (Table 17, symbol C). It is filed as in vivo, oval-leafed pondweed (Monochoria vaginalis). Particulars: AAH 320 g/ha; application during weed generation, submerged conditions. The method in brief:
(§3)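 In this pot test, flooded alluvial soil (water depth 4 cm) holds all three species sown as a mixture. Once seedlings have one to two leaves, the compound's emulsion, thinned with water to the intended dose, is poured on the water; grading follows after three weeks on the earlier criteria.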
As for `CCCOc1ccc2c(-c3c(O)c(C)nn(C)c3=O)c(-c3ccccc3OCC)sc2c1` [3-103], the “herbicidal effect rating, C: oval-leafed pondweed” value was 3 (Herbicidal rate of 40% or more and less than 70%).
`COc1ccccc1-c1sc2cc(OCC(F)F)ccc2c1-c1c(O)c(C)nn(C)c1=O` [3-114]: the “herbicidal effect rating, C: oval-leafed pondweed” value is 5 (Herbicidal rate of 90% or more (almost completely withered)).

Another assay concerns barnyard grass. The assay can be described thus: Test Example 4: herbicidal effect by soil treatment (Table 19, symbol H). It is filed as in vivo, barnyard grass (Echinochloa crus-galli). The following applies: amount of applied herbicide 320 g/ha. The method in brief:
as §1
With `CCCOc1ccc2c(-c3c(O)c(C)nn(C)c3=O)c(-c3ccccc3OCC)sc2c1` [3-103], the “H: barnyard grass, herbicidal effect grade” value (“H: barnyard grass” below) was 4 (Herbicidal rate of 70% or more and less than 90%).
Consider `COc1ccccc1-c1sc2cc(OCC(F)F)ccc2c1-c1c(O)c(C)nn(C)c1=O` [3-114], for which the “H: barnyard grass” value is reported as 5 (Herbicidal rate of 90% or more (almost completely withered)).

Another assay has as its system lambsquarters. The assay can be described thus: Test Example 4: herbicidal effect by soil treatment (Table 19, symbol O). Particulars: amount of applied herbicide 320 g/ha. The class given is in vivo, lambsquarters (Chenopodium album). A digest of the protocol: as §1
For `CCCOc1ccc2c(-c3c(O)c(C)nn(C)c3=O)c(-c3ccccc3OCC)sc2c1` [3-103], the “O: lambsquarters, herbicidal effect grade” value is reported as 5 (Herbicidal rate of 90% or more (almost completely withered)).
In the case of `COc1ccccc1-c1sc2cc(OCC(F)F)ccc2c1-c1c(O)c(C)nn(C)c1=O` [3-114], the “O: lambsquarters, herbicidal effect grade” value was 5 (Herbicidal rate of 90% or more (almost completely withered)).

For another assay, the system named is barnyard grass. The assay can be described thus: Test Example 5: herbicidal effect by foliage application, plastic box (Table 20, symbol H). It is filed as in vivo, barnyard grass (Echinochloa crus-galli). The following applies: foliage application, 320 g/ha, three weeks after application. A digest of the protocol: as §2
In the case of `CCCOc1ccc2c(-c3c(O)c(C)nn(C)c3=O)c(-c3ccccc3OCC)sc2c1` [3-103], the “H: barnyard grass” value is 5 (Herbicidal rate of 90% or more (almost completely withered)).
In the case of `COc1ccccc1-c1sc2cc(OCC(F)F)ccc2c1-c1c(O)c(C)nn(C)c1=O` [3-114], the “H: barnyard grass” value was 5 (Herbicidal rate of 90% or more (almost completely withered)).

The next assay concerns southern crabgrass. The assay can be described thus: Test Example 4: herbicidal effect by soil treatment (Table 19, symbol F). Particulars: amount of applied herbicide 320 g/ha. The class given is in vivo, southern crabgrass (Digitaria ciliaris). The method in brief: as §1
Regarding `CCCOc1ccc2c(-c3c(O)c(C)nn(C)c3=O)c(-c3ccccc3OCC)sc2c1` [3-103], the “F: southern crabgrass, herbicidal effect grade” value is given as 5 (Herbicidal rate of 90% or more (almost completely withered)).
`COc1ccccc1-c1sc2cc(OCC(F)F)ccc2c1-c1c(O)c(C)nn(C)c1=O` [3-114]: the “F: southern crabgrass, herbicidal effect grade” value is 4 (Herbicidal rate of 70% or more and less than 90%).

A further assay relates to persian speedwell. The assay can be described thus: Test Example 4: herbicidal effect by soil treatment (Table 19, symbol R). Particulars: amount of applied herbicide 320 g/ha. The class given is in vivo, Persian speedwell (Veronica persica). A digest of the protocol: as §1
`CCCOc1ccc2c(-c3c(O)c(C)nn(C)c3=O)c(-c3ccccc3OCC)sc2c1` [3-103]: the “R: persian speedwell, herbicidal effect grade” value is listed as 5 (Herbicidal rate of 90% or more (almost completely withered)).
For the molecule `COc1ccccc1-c1sc2cc(OCC(F)F)ccc2c1-c1c(O)c(C)nn(C)c1=O` [3-114], the “R: persian speedwell, herbicidal effect grade” value is 5 (Herbicidal rate of 90% or more (almost completely withered)).

Another assay has as its system late watergrass. The assay can be described thus: Test Example 2: herbicidal activity, application during weed generation under submerged conditions (Table 17, symbol A). It is filed as in vivo, late watergrass (Echinochloa oryzicola). The following applies: AAH 320 g/ha; application during weed generation, submerged conditions. A digest of the protocol: as §3
Take `CCCOc1ccc2c(-c3c(O)c(C)nn(C)c3=O)c(-c3ccccc3OCC)sc2c1` [3-103]: the “herbicidal effect rating, A: late watergrass” value is 2 (Herbicidal rate of 20% or more and less than 40%).
`COc1ccccc1-c1sc2cc(OCC(F)F)ccc2c1-c1c(O)c(C)nn(C)c1=O` [3-114]: the “herbicidal effect rating, A: late watergrass” value was 3 (Herbicidal rate of 40% or more and less than 70%).
